Source: patent US20050101595A1, “N-containing cycloalkyl-substituted amino-thiazole derivatives and pharmaceutical compositions for inhibiting cell proliferation and methods for their use” (PFIZER INC., priority 2003, published 2005)
Like-named read-outs stand apart in the source and are kept apart here.

Key:
CDK2/Cyclin A = CDK2/Cyclin A (Homo sapiens, UniProt P24941); experiment: Inhibition of CDK2/Cyclin A Retinoblastoma Kinase Activity; format: biochemical; details: for Ki: apparent Ki, CDK2/proteolyzed cyclin A, Rb fragment substrate, 25 μM ATP; for inhibition at 0.05 µM: read-out: % inhibition of CDK2 (@ 0.05 μM), compound at 0.05 μM
Method: Cyclin-dependent kinase activity was measured by quantifying the enzyme-catalyzed, time-dependent incorporation of radioactive phosphate from [^32P]ATP or [^33P]ATP into a protein substrate. Unless noted otherwise, assays were performed in 96-well plates in a total volume of 50 μL, in the presence of 10 mM HEPES (N-[2-hydroxyethyl]piperazine-N′-[2-ethanesulfonic acid]) (pH 7.4), 10 mM MgCl2, 25 μM adenosine triphosphate (ATP), 1 mg/mL ovalbumin, 5 μg/mL leupeptin, 1 mM dithiothreitol, 10 mM β-glycerophosphate, 0.1 mM sodium vanadate, 1 mM sodium fluoride, 2.5 mM ethylene glycol-bis(β-aminoethyl ether)-N,N,N′N′-tetraacetic acid (EGTA), 2% (v/v) dimethylsulfoxide, and 0.03-0.4 μCi [^32/33P]ATP per reaction. Reactions were initiated with enzyme, incubated at 30° C., and terminated after 20 minutes by the addition of ethylenediaminetetraacetic acid (EDTA) to 250 mM. The phosphorylated substrate was then captured on a nitrocellulose or phosphocellulose membrane using a 96-well filtration manifold, and unincorporated radioactivity was removed by repeated washing with 0.85% phosphoric acid. Radioactivity was quantified by exposing the dried membranes to a phosphorimager.
Inhibition was measured relative to control wells that contained all reaction components including 2% (v/v) DMSO but no compound, after subtraction of background radioactivity measured in the absence of enzyme. Apparent Ki values of discrete compounds were measured by assaying enzyme activity in the presence of different inhibitor compound concentrations and subtracting the background radioactivity measured in the absence of enzyme. The kinetic parameters (kcat, Km for ATP) were measured for each enzyme under the usual assay conditions by determining the dependence of initial rates on ATP concentration. Inhibition data were fit to an equation for competitive inhibition using Kaleidagraph (Synergy Software), or were fit to an equation for competitive tight-binding inhibition using the software KineTic (BioKin, Ltd.).
Inhibition of CDK2/Cyclin A Retinoblastoma Kinase Activity:
CDK2 was purified using published methodology (Rosenblatt et al., “Purification and Crystallization of Human Cyclin-dependent Kinase 2,” J. Mol. Biol., vol. 230, 1993, pp. 1317-1319) from insect cells that had been infected with a baculovirus expression vector. […] A complex of CDK2 and proteolyzed cyclin A was prepared and purified by gel filtration. The substrate for this assay was the same Rb substrate fragment used for the CDK4 assays, and the methodology of the CDK2/delta cyclin A and the CDK4/delta cyclin D3 assays was essentially the same, except that CDK2 was present at 10 nM or 19 nM. The duration of the assay was 60 or 75 minutes, during which the time-dependence of product formation was linear and initial rate conditions were met. And, the percent inhibitions of the compounds of Example O through Example R were calculated as described above and shown in Table 2.

HCT-116 cell line = experiment: Inhibition of cell growth, tetrazolium salt (MTT) assay; format: cell-based; details: for IC50 / inhibition at 0.175 µM / inhibition at 0.25 µM: Homo sapiens; for IC50: HCT-116, 120 h, three to five days, read-out: HCT-116 IC50; for IC50 / inhibition at 0.175 µM: MTT; for inhibition at 0.175 µM: HCT-116, HCT-116 cells, compound at 0.175 uM; for inhibition at 0.25 µM: HCT-116, HCT116 cells, read-out: % Inhibition HCT116 @ 250 nM; for inhibition at 0.25 µM / % Inhibition HCT116 @ 250 nM: compound at 250 nM; for % Inhibition HCT116 @ 250 nM: HCT116 cells, 0.25 µM
Procedure, shortened: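 Cells in McCoy's 5A medium were left 4 h, then given graded compound concentrations in 0.5% (v/v) DMSO and incubated three to five days at 37° C (5% CO2). MTT was added to 0.2 mg/mL for 4 h more; DMSO-solubilized formazan was read at 540 nm against 0.5% DMSO-only controls.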

Row | SMILES | inhibition at 0.25 µM (HCT-116 cell line) [%] | further results
1 | Nc1nc(NC2CCN(S(=O)(=O)CCCNC3CCCCC3)CC2)sc1C(=O)c1c(F)cccc1F [Example K55, {4-Amino-2-[1-(3-cyclohexylamino-propane-1-sulfonyl)-piperidin-4-ylamino]-thiazol-5-yl}-(2,6-difluoro-phenyl)-methanone] | – | Ki (CDK2/Cyclin A): 8 nM; IC50 (HCT-116 cell line; first HCT-116 column (c4)): 680 nM
2 | Nc1nc(NC2CCN(S(=O)(=O)CCCNCc3ccc(F)cc3)CC2)sc1C(=O)c1c(F)cccc1F [Example V182, (4-Amino-2-{[1-({3-[(4-fluorobenzyl)amino]propyl}sulfonyl)-4-piperidinyl]amino}-1,3-thiazol-5-yl)(2,6-difluorophenyl)methanone.] | – | Ki (CDK2/Cyclin A): 4.7 nM; IC50 (HCT-116 cell line; first HCT-116 column (c4)): 70 nM
3 | Nc1nc(NC2CCN(S(=O)(=O)CCCNC3CCOC3=O)CC2)sc1C(=O)c1c(F)cccc1F (stereo not drawn) [Example V18] | – | inhibition at 0.05 µM (CDK2/Cyclin A): 22%; inhibition at 0.175 µM (HCT-116 cell line): 0%
4 | Nc1nc(NC2CCN(S(=O)(=O)CCCNCCO)CC2)sc1C(=O)c1c(F)cccc1F [Example V91] | – | inhibition at 0.05 µM (CDK2/Cyclin A): 81%; inhibition at 0.175 µM (HCT-116 cell line): 13%
5 | CN(C)CCNCCS(=O)(=O)N1CCC(Nc2nc(N)c(C(=O)c3c(F)cccc3F)s2)CC1 [Example S114] | 49 | –
6 | Nc1nc(NC2CCN(S(=O)(=O)CCNCC(=O)NO)CC2)sc1C(=O)c1c(F)cccc1F [Example S168] | 16 | –
7 | Cc1ccc(CNCCS(=O)(=O)N2CCC(Nc3nc(N)c(C(=O)c4c(F)cccc4F)s3)CC2)o1 [Example S164] | 28 | –
8 | CC(=O)NCCNCCS(=O)(=O)N1CCC(Nc2nc(N)c(C(=O)c3c(F)cccc3F)s2)CC1 [Example S165] | – | % Inhibition HCT116 @ 250 nM (HCT-116 cell line): 25%
9 | CC(C)(C)CCNCCS(=O)(=O)N1CCC(Nc2nc(N)c(C(=O)c3c(F)cccc3F)s2)CC1 [Example S121] | 20 | –
10 | CC(C)(C)NCCS(=O)(=O)N1CCC(Nc2nc(N)c(C(=O)c3c(F)cccc3F)s2)CC1 [Example S81] | 82 | –
11 | CN(CCO)CCS(=O)(=O)N1CCC(Nc2nc(N)c(C(=O)c3c(F)cccc3F)s2)CC1 [Example S4] | 25 | –
12 | Cc1ccc(CNCCS(=O)(=O)N2CCC(Nc3nc(N)c(C(=O)c4c(F)cccc4F)s3)CC2)c(C)c1 [Example S137] | 43 | –
13 | N#CCCNCCS(=O)(=O)N1CCC(Nc2nc(N)c(C(=O)c3c(F)cccc3F)s2)CC1 [Example S132] | 20 | –
14 | Nc1nc(NC2CCN(S(=O)(=O)CCNCc3cccnc3)CC2)sc1C(=O)c1c(F)cccc1F [Example S84] | – | % Inhibition HCT116 @ 250 nM (HCT-116 cell line): 12%
15 | COc1cccc(CNCCS(=O)(=O)N2CCC(Nc3nc(N)c(C(=O)c4c(F)cccc4F)s3)CC2)c1 [Example S100] | 38 | –
16 | Nc1nc(NC2CCN(S(=O)(=O)CCN3CCN(C=O)CC3)CC2)sc1C(=O)c1c(F)cccc1F [Example S17] | 19 | –
17 | COCC(C)NCCS(=O)(=O)N1CCC(Nc2nc(N)c(C(=O)c3c(F)cccc3F)s2)CC1 (stereo not drawn) [Example S89] | 17 | –
18 | Nc1nc(NC2CCN(S(=O)(=O)CCNCc3cccc(Cl)c3)CC2)sc1C(=O)c1c(F)cccc1F [Example S142] | 80 | –
19 | Nc1nc(NC2CCN(S(=O)(=O)CCNCC(O)c3ccccc3)CC2)sc1C(=O)c1c(F)cccc1F (stereo not drawn) [Example S109] | 19 | –
20 | Nc1nc(NC2CCN(S(=O)(=O)CCNCc3cccc(Cl)c3)CC2)sc1C(=O)c1c(F)cccc1F [Example K52, (4-Amino-2-{1-[2-(3-chloro-benzylamino)-ethanesulfonyl]-piperidin-4-ylamino}-thiazol-5-yl)-(2,6-difluoro-phenyl)-methanone] | – | IC50 (HCT-116 cell line; first HCT-116 column (c4)): 110 nM; IC50 (HCT-116 cell line; second HCT-116 column (c5)): 250 nM
21 | NC(=O)C1CCN(CCS(=O)(=O)N2CCC(Nc3nc(N)c(C(=O)c4c(F)cccc4F)s3)CC2)CC1 [Example S48] | 17 | –
22 | COC(=O)CNCCS(=O)(=O)N1CCC(Nc2nc(N)c(C(=O)c3c(F)cccc3F)s2)CC1 [Example S129] | 25 | –
23 | CN(C)[C@H]1CCN(CCS(=O)(=O)N2CCC(Nc3nc(N)c(C(=O)c4c(F)cccc4F)s3)CC2)C1 [Example S61] | 8 | –

Row | SMILES | inhibition at 0.25 µM (HCT-116 cell line) [%] | further results
24 | Nc1nc(NC2CCN(S(=O)(=O)CCN3CCCC(O)C3)CC2)sc1C(=O)c1c(F)cccc1F (stereo not drawn) [Example S39] | 14 | –
25 | NC(=O)[C@@H]1CCCN1CCS(=O)(=O)N1CCC(Nc2nc(N)c(C(=O)c3c(F)cccc3F)s2)CC1 [Example S20] | 18 | –
26 | N#CCNCCS(=O)(=O)N1CCC(Nc2nc(N)c(C(=O)c3c(F)cccc3F)s2)CC1 [Example S128] | – | % Inhibition HCT116 @ 250 nM (HCT-116 cell line): 86%
27 | CC(C)(C)CNCCS(=O)(=O)N1CCC(Nc2nc(N)c(C(=O)c3c(F)cccc3F)s2)CC1 [Example K51, (4-Amino-2-{1-[2-(2,2-dimethyl-propylamino)-ethanesulfonyl]-piperidin-4-ylamino}-thiazol-5-yl)-(2,6-difluoro-phenyl)-methanone] | – | IC50 (HCT-116 cell line; first HCT-116 column (c4)): 170 nM; IC50 (HCT-116 cell line; second HCT-116 column (c5)): 500 nM
28 | Nc1nc(NC2CCN(S(=O)(=O)CCN(CCO)CCO)CC2)sc1C(=O)c1c(F)cccc1F [Example S6] | 13 | –
29 | Nc1nc(NC2CCN(S(=O)(=O)CCNC3CC3)CC2)sc1C(=O)c1c(F)cccc1F [Example S60] | 72 | –
30 | CSCCNCCS(=O)(=O)N1CCC(Nc2nc(N)c(C(=O)c3c(F)cccc3F)s2)CC1 [Example S133] | 18 | –
31 | CC1CCCCN1CCS(=O)(=O)N1CCC(Nc2nc(N)c(C(=O)c3c(F)cccc3F)s2)CC1 (stereo not drawn) [Example S15] | 46 | –
32 | CN(CCS(=O)(=O)N1CCC(Nc2nc(N)c(C(=O)c3c(F)cccc3F)s2)CC1)C1CCCCC1 [Example S9] | 43 | –
33 | CC(C)OCCNCCS(=O)(=O)N1CCC(Nc2nc(N)c(C(=O)c3c(F)cccc3F)s2)CC1 [Example S166] | 9 | –
34 | Cc1ccccc1CNCCS(=O)(=O)N1CCC(Nc2nc(N)c(C(=O)c3c(F)cccc3F)s2)CC1 [Example S98] | 49 | –
35 | CC(C)N(CCS(=O)(=O)N1CCC(Nc2nc(N)c(C(=O)c3c(F)cccc3F)s2)CC1)C(C)C [Example S33] | 79 | –
36 | CC(C)[C@@H](CO)NCCS(=O)(=O)N1CCC(Nc2nc(N)c(C(=O)c3c(F)cccc3F)s2)CC1 [Example S156] | 17 | –
37 | COC(CN(C)CCS(=O)(=O)N1CCC(Nc2nc(N)c(C(=O)c3c(F)cccc3F)s2)CC1)OC [Example S30] | 18 | –
38 | CN(CCc1ccncc1)CCS(=O)(=O)N1CCC(Nc2nc(N)c(C(=O)c3c(F)cccc3F)s2)CC1 [Example S50] | 17 | –
39 | CC(CN(C)C)NCCS(=O)(=O)N1CCC(Nc2nc(N)c(C(=O)c3c(F)cccc3F)s2)CC1 (stereo not drawn) [Example S130] | 20 | –
40 | COCCN(CCOC)CCS(=O)(=O)N1CCC(Nc2nc(N)c(C(=O)c3c(F)cccc3F)s2)CC1 [Example S46] | 58 | –
41 | CC1CCN(CCNCCS(=O)(=O)N2CCC(Nc3nc(N)c(C(=O)c4c(F)cccc4F)s3)CC2)CC1 [Example S163] | 25 | –
42 | CC1CN(CCS(=O)(=O)N2CCC(Nc3nc(N)c(C(=O)c4c(F)cccc4F)s3)CC2)CC(C)O1 (stereo not drawn) [Example S16] | 20 | –
43 | Nc1nc(NC2CCN(S(=O)(=O)CCN[C@@H]3CONC3=O)CC2)sc1C(=O)c1c(F)cccc1F [Example S76] | 11 | –
44 | CCN(CC)CCN(CC)CCS(=O)(=O)N1CCC(Nc2nc(N)c(C(=O)c3c(F)cccc3F)s2)CC1 [Example S43] | 13 | –
45 | NC(=O)C1CCCN(CCS(=O)(=O)N2CCC(Nc3nc(N)c(C(=O)c4c(F)cccc4F)s3)CC2)C1 (stereo not drawn) [Example S12] | 19 | –
